Data as given in ChEMBL document CHEMBL5329222, “Discovery of novel tubulin CBSI (R)-9k from the indanone scaffold for the treatment of colorectal cancer” (RSC Med Chem, 2023).
pIC50: −log10 of the molar value. The source made the active and inactive calls. The rule behind the calls is not given here.

Experiments:
HCT-116 [1] = assay: Inhibition of colony formation in human HCT-116 cells at 1 uM incubated for 48 hrs by crystal violet staining based analysis; format: functional; conditions: HCT-116, 48 h, values are per cent of control
[2] = target: Voltage-gated inwardly rectifying potassium channel KCNH2 (Homo sapiens, UniProt Q12809); assay: Inhibition of hERG expressed in CHO cells at 40 uM by automated patch clamp analysis; format: toxicity, cell-based
HCT-116 [3] = assay: Induction of cell cycle arrest in human HCT-116 cells assessed as accumulation of cells at G2/M phase at 1.5 uM incubated for 24 hrs by flow cytometry analysis (reference value: 18.25%); format: functional
[4] = Potency index, ratio of test compound IC50 to colchicine IC50 for cytotoxicity against human HUVEC cells assessed as inhibition of cell growth incubated 1.5 hrs by MTT assay; format: toxicity, cell-based; conditions: read-out: Ratio IC50
HCT-116 [5] = assay: Inhibition of cell migration in human HCT-116 cells measured for 24 hrs by scratch wound healing assay; format: functional, cell-based; conditions: dose 0.5-5 µM
HCT-116 [6] = assay: Inhibition of cell migration in human HCT-116 cells at 5 uM measured for 24 hrs by scratch wound healing assay; format: functional
Tubulin (Bos taurus) [7] = target: T1, Tubulin (Bos taurus) (UniProt Q6B856+Q862L2+Q862F3); assay: Inhibition of bovine brain tubulin polymerization at 3 uM measured at 2 to 20 mins by spectrophotometer analysis relative to control; conditions: time 2-20 min
[8] = Cytotoxicity against HEK293 cells assessed as inhibition of cell growth incubated 1.5 hrs by MTT assay; format: toxicity, cell-based; conditions: human
hERG (KCNH2) = hERG (KCNH2) (Homo sapiens, UniProt Q12809); assay: Inhibition of hERG expressed in CHO cells at 40 uM by automated patch clamp analysis relative to control; format: toxicity, cell-based; conditions: CHO cells that express hERG
HCT-116 [9] = assay: Induction of apoptosis in human HCT-116 cells assessed as viable cells at 3 uM incubated for 24 hrs by annexin V-FITC/7-AAD staining based flow cytometry analysis (reference value: 90.19%); format: functional; conditions: read-out: Activity
HCT-116 [10] = assay: Induction of cell cycle arrest in human HCT-116 cells assessed as accumulation of cells at G1 phase at 3 uM incubated for 24 hrs by flow cytometry analysis (reference value: 68.74%); format: functional
CT26 = assay: Growth inhibition of CT26 cells incubated for 1.5 hrs by MTT assay; format: functional, cell-based; conditions: Mus musculus, CT26, 1.5 h
HCT-116 [11] = assay: Inhibition of cell migration in human HCT-116 cells at 0.5 uM measured for 24 hrs by scratch wound healing assay; format: functional
HCT-116 [12] = assay: Induction of apoptosis in human HCT-116 cells assessed as late apoptotic cells at 1.5 uM incubated for 24 hrs by annexin V-FITC/7-AAD staining based flow cytometry analysis (reference value: 1.53%); format: functional
HCT-116 [13] = assay: Inhibition of cell migration in human HCT-116 cells at 1 uM measured for 24 hrs by scratch wound healing assay; format: functional
HCT-116 [14] = assay: Induction of cell cycle arrest in human HCT-116 cells assessed as accumulation of cells at G2 phase at 1.5 uM incubated for 24 hrs by flow cytometry analysis (reference value: 18.25%); format: functional
HCT-116 [15] = assay: Induction of cell cycle arrest in human HCT-116 cells assessed as accumulation of cells at G1 phase at 6 uM incubated for 24 hrs by flow cytometry analysis (reference value: 68.74%); format: functional
HCT-116 [16] = assay: Induction of cell cycle arrest in human HCT-116 cells assessed as accumulation of cells at S phase at 6 uM incubated for 24 hrs by flow cytometry analysis (reference value: 3.61%); format: functional
HCT-116 [17] = assay: Induction of apoptosis in human HCT-116 cells assessed as late apoptotic cells at 6 uM incubated for 24 hrs by annexin V-FITC/7-AAD staining based flow cytometry analysis (reference value: 1.53%); format: functional
HCT-116 [18] = assay: Inhibition of cell migration in human HCT-116 cells at 2 uM measured for 24 hrs by scratch wound healing assay; format: functional
HCT-116 [19] = assay: Inhibition of colony formation in human HCT-116 cells incubated for 48 hrs by crystal violet staining based analysis; format: functional, cell-based; conditions: dose 0.1-2 µM
[20] = Potency index, ratio of test compound IC50 to 5-fluorouracil IC50 for cytotoxicity against human HUVEC cells assessed as inhibition of cell growth incubated 1.5 hrs by MTT assay; format: toxicity, cell-based; conditions: read-out: Ratio IC50
HCT-116 [21] = assay: Inhibition of colony formation in human HCT-116 cells at 0.1 uM incubated for 48 hrs by crystal violet staining based analysis; format: functional; conditions: HCT-116, 48 h, values are per cent of control
HCT-116 [22] = assay: Growth inhibition of human HCT-116 cells incubated for 1.5 hrs by MTT assay; format: functional, cell-based; conditions: HCT-116, 1.5 h
HCT-116 [23] = assay: Induction of cell cycle arrest in human HCT-116 cells assessed as accumulation of cells at G2 phase at 6 uM incubated for 24 hrs by flow cytometry analysis (reference value: 18.25%); format: functional
SW480 = assay: Growth inhibition of human SW480 cells incubated for 1.5 hrs by MTT assay; format: functional, cell-based
Tubulin (Bos taurus) [24] = target: T1, Tubulin (Bos taurus); assay: Inhibition of bovine brain tubulin polymerization at 6 uM measured at 2 to 20 mins by spectrophotometer analysis relative to control; conditions: time 2-20 min
HCT-116 [25] = assay: Induction of apoptosis in human HCT-116 cells assessed as early apoptotic cells at 6 uM incubated for 24 hrs by annexin V-FITC/7-AAD staining based flow cytometry analysis (reference value: 5.82%); format: functional
HCT-116 [26] = assay: Induction of apoptosis in human HCT-116 cells assessed as early apoptotic cells at 1.5 uM incubated for 24 hrs by annexin V-FITC/7-AAD staining based flow cytometry analysis (reference value: 5.82%); format: functional
HCT-116 [27] = assay: Induction of apoptosis in human HCT-116 cells assessed as necrotic cells at 6 uM incubated for 24 hrs by annexin V-FITC/7-AAD staining based flow cytometry analysis (reference value: 2.46%); format: functional
HCT-116 [28] = assay: Induction of apoptosis in human HCT-116 cells assessed as early apoptotic cells at 3 uM incubated for 24 hrs by annexin V-FITC/7-AAD staining based flow cytometry analysis (reference value: 5.82%); format: functional
HCT-116 [29] = assay: Induction of cell cycle arrest in human HCT-116 cells assessed as accumulation of cells at G2 phase at 3 uM incubated for 24 hrs by flow cytometry analysis (reference value: 18.25%); format: functional
Tubulin (Bos taurus) [30] = target: T1, Tubulin (Bos taurus); assay: (§1) Inhibition of bovine brain tubulin polymerization measured at 2 to 20 mins by spectrophotometer analysis; conditions: time 2-20 min
Tubulin = Tubulin (Bos taurus, UniProt Q6B856+Q862L2+Q862F3); assay: as §1
HeLa = assay: Growth inhibition of human HeLa cells incubated for 1.5 hrs by MTT assay; format: functional, cell-based
HCT-116 [31] = assay: Induction of apoptosis in human HCT-116 cells assessed as late apoptotic cells at 3 uM incubated for 24 hrs by annexin V-FITC/7-AAD staining based flow cytometry analysis (reference value: 1.53%); format: functional
[32] = target: Tubulin beta (Homo sapiens) (UniProt P68371+Q9H4B7+Q13509+P04350+Q3ZCM7+P07437+Q13885+Q9BVA1+Q9BUF5+A6NNZ2); assay: Binding affinity to beta-tubulin colchicine binding site in human HCT-116 cells assessed as inhibition of EBI-beta-tubulin adduct band formation at 1 to 25 uM preincubated for 2 hrs followed by EBI addition measured after 1.5 hrs by EBI competition based Western blotting analysis; format: cell-based; conditions: dose 1-25 µM, time 3.5 hrs

Chain of hERG (KCNH2) (Q12809 whole entry): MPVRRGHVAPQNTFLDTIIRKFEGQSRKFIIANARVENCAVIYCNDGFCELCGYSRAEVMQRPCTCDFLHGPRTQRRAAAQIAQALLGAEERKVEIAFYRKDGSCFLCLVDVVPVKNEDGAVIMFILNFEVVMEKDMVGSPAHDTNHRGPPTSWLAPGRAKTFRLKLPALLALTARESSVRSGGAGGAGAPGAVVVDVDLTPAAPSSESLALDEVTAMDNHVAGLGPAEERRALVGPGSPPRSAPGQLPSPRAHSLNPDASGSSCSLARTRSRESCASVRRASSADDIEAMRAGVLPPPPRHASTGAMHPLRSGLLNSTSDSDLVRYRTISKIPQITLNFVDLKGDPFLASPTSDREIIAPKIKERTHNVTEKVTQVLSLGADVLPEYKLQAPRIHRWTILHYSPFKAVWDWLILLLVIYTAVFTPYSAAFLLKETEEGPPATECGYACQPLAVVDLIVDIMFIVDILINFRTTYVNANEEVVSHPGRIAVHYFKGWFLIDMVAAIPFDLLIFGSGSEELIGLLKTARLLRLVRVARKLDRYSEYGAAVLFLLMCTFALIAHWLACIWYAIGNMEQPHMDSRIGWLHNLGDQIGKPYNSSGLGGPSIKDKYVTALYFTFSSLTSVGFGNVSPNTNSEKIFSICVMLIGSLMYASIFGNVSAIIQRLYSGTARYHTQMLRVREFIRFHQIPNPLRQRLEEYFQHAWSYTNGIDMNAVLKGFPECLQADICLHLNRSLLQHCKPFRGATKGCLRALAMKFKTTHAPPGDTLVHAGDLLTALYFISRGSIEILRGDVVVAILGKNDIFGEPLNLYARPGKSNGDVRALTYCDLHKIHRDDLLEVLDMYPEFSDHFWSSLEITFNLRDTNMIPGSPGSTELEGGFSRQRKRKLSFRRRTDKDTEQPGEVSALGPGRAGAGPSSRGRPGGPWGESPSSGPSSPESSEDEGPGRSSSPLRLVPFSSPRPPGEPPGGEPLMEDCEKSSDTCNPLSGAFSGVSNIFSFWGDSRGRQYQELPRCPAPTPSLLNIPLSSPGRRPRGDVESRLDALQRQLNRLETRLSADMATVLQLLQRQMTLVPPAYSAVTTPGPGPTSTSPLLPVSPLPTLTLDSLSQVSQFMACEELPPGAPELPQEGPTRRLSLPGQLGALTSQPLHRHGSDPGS
Chain of Voltage-gated inwardly rectifying potassium channel KCNH2 (Q12809 whole entry): as above

CCOc1ccc([C@H]2CC(=O)c3cc(OC)c(OC)c(OC)c32)cc1F
growth, % of control at 1 µM (HCT-116 [1]): 1.3%
pIC50 [2]: < 4.40
Activity (HCT-116 [3]): 24.41%
selectivity ratio at 1.5 h [4]: 35
inhibition (HCT-116 [5]): Dose-Dependent Effect
inhibition at 5 µM (HCT-116 [6]): 80%
inhibition (Tubulin (Bos taurus) [7]): 30%
IC50 at 1.5 h [8]: 7450 nM
inhibition at 40 µM (hERG (KCNH2)): 42%
viability at 3 µM (HCT-116 [9]): 73%
Activity (HCT-116 [10]): 62.85%
pIC50 (CT26): 5.39
inhibition at 0.5 µM (HCT-116 [11]): 21%
Activity (HCT-116 [12]): 2.85%
inhibition at 1 µM (HCT-116 [13]): 43%
Activity (HCT-116 [14]): 24.4%
Activity (HCT-116 [15]): 35.2%
Activity (HCT-116 [16]): 5.1%
Activity (HCT-116 [17]): 13.77%
inhibition at 2 µM (HCT-116 [18]): 55%
inhibition (HCT-116 [19]): Dose-Dependent Effect
selectivity ratio at 1.5 h [20]: 1.6
growth, % of control at 0.1 µM (HCT-116 [21]): 57.9%
pIC50 (HCT-116 [22]): 6.59
Activity (HCT-116 [23]): 47.34%
pIC50 (SW480): 5.88
inhibition (Tubulin (Bos taurus) [24]): 54%
Activity (HCT-116 [25]): 21.2%
Activity (HCT-116 [26]): 8.12%
Activity (HCT-116 [27]): 4.48%
Activity (HCT-116 [28]): 18.75%
Activity (HCT-116 [29]): 28.73%
inhibition (Tubulin (Bos taurus) [30]): Dose-Dependent Effect
IC50 (Tubulin): 6100 nM
pIC50 (HeLa): 6.42
Activity (HCT-116 [31]): 5.07%
Activity [32]: Active
